ChEMBL document CHEMBL5321279 (J Med Chem, 2023)
The source made the active and inactive calls. The rule behind the calls is not given here.

Key:
[1] = (§1) Cytotoxicity against human PC-3 cells assessed as reduction in cell growth measured after 5 days by CellTiter-Glo assay; format: toxicity, cell-based; details: PC-3 cells, time 5 day
[2] = (§2) Cytotoxicity against human HepG2 cells assessed as reduction in cell growth measured after 5 days by CellTiter-Glo assay; format: toxicity, cell-based; details: HepG2 cells, time 5 day
[3] = (§3) Cmax in African green monkey infected with SARS-CoV-2 assessed as prodrug conversion by measuring (2R,3R,4S,5R)-2-(4-aminopyrrolo[2,1-f][1,2,4]triazin-7-yl)-3,4-dihydroxy-5-(hydroxymethyl)tetrahydrofuran-2-carbonitrile at 10 mg/kg, iv qd administered for day 1 followed by 5 mg/kg administration measured after 6 days by LC-MS/MS analysis; format: ADME, organism-based, Severe acute respiratory syndrome coronavirus 2; set-up: dose 10 mg/kg, time 6 day, route iv; details: in vivo
[4] = as §3, with “AUC(0 to 24 hrs)” for “Cmax”; format: ADME, organism-based, Severe acute respiratory syndrome coronavirus 2; set-up: dose 10 mg/kg, time 6 day, route iv; details: in vivo
[5] = Prodrug conversion in SARS-CoV-2 infected in African green monkey assessed as (2R,3R,4S,5R)-2-(4-aminopyrrolo[2,1-f][1,2,4]triazin-7-yl)-3,4-dihydroxy-5-(hydroxymethyl)tetrahydrofuran-2-carbonitrile mediated log10 reduction of genomic RNA at 10 mg/kg, iv qd administered for day 1 followed by 5 mg/kg administration measured after 6 days by RT-qPCR analysis; format: ADME, organism-based, Severe acute respiratory syndrome coronavirus 2; details: in vivo, time 6 day
[6] = Prodrug conversion in cynomolgus monkey assessed as Nucleotide triphosphate metabolite formation in lung at 20 mg/kg, iv measured upto 24 hrs by LC-MS/MS analysis; format: ADME, organism-based, Macaca fascicularis; details: in vivo
[7] = Stability of compound in rat gastrointestinal S9 fraction assessed as half life at pH 7.4 measured upto 120 mins by LC-MS/MS analysis; format: ADME, subcellular, Gastrointestinal tract
[8] = Stability of compound in rat plasma assessed as half life measured upto 4 hrs by LC-MS/MS analysis; format: ADME, cell-free
[9] = Stability of compound in human plasma assessed as half life measured upto 4 hrs by LC-MS/MS analysis; format: ADME, cell-free
[10] = Oral bioavailability in rat assessed as prodrug conversion by measuring (2R,3R,4S,5R)-2-(4-aminopyrrolo[2,1-f][1,2,4]triazin-7-yl)-3,4-dihydroxy-5-(hydroxymethyl)tetrahydrofuran-2-carbonitrile at 6 mg/kg administered in solid form measured upto 24 hrs by LC-MS/MS analysis; format: ADME, organism-based; details: in vivo
[11] = AUC(0 to 24 hrs) in cynomolgus monkey at 11.7 mg/kg, po measured upto 24 hrs by LC-MS/MS analysis; format: ADME, organism-based, Macaca fascicularis; set-up: dose 11.7 mg/kg, time < 24 hrs, route po; details: in vivo
[12] = AUC(0 to 24 hrs) in African green monkey at […], po measured upto 24 hrs by LC-MS/MS analysis; format: ADME, organism-based; details: chlorocebus sabaeus, in vivo
[13] = Prodrug conversion in African green monkey assessed as Nucleotide triphosphate metabolite formation in lung at 60 mg/kg, po measured upto 24 hrs by LC-MS/MS analysis; format: ADME, organism-based; details: chlorocebus aethiops, in vivo
[14] = Oral bioavailability in African green monkey assessed as prodrug conversion by measuring (2R,3R,4S,5R)-2-(4-aminopyrrolo[2,1-f][1,2,4]triazin-7-yl)-3,4-dihydroxy-5-(hydroxymethyl)tetrahydrofuran-2-carbonitrile at 60 mg/kg measured upto 24 hrs by LC-MS/MS analysis; format: ADME, organism-based; details: chlorocebus sabaeus, in vivo
[15] = Oral bioavailability in dog assessed as prodrug conversion by measuring (2R,3R,4S,5R)-2-(4-aminopyrrolo[2,1-f][1,2,4]triazin-7-yl)-3,4-dihydroxy-5-(hydroxymethyl)tetrahydrofuran-2-carbonitrile at […] administered in solid form measured upto 24 hrs by LC-MS/MS analysis; format: ADME, organism-based, Canis lupus familiaris; details: in vivo
[16] = Oral bioavailability in cynomolgus monkey assessed as prodrug conversion by measuring (2R,3R,4S,5R)-2-(4-aminopyrrolo[2,1-f][1,2,4]triazin-7-yl)-3,4-dihydroxy-5-(hydroxymethyl)tetrahydrofuran-2-carbonitrile at 11.7 mg/kg administered in solid form measured upto 24 hrs by LC-MS/MS analysis; format: ADME, organism-based, Macaca fascicularis; details: in vivo
PC-3 = experiment: as §1; format: toxicity, cell-based; details: pc-3, 120 h, time 5 day
HepG2 = experiment: as §2; format: toxicity, cell-based; details: hepg2, 120 h, time 5 day
[17] = Cmax in cynomolgus monkey assessed as prodrug conversion by measuring (2R,3R,4S,5R)-2-(4-aminopyrrolo[2,1-f][1,2,4]triazin-7-yl)-3,4-dihydroxy-5-(hydroxymethyl)tetrahydrofuran-2-carbonitrile at 11.7 mg/kg, po measured upto 24 hrs by LC-MS/MS analysis; format: ADME, organism-based, Macaca fascicularis; set-up: time < 24 hrs, dose 11.7 mg/kg, route po; details: in vivo
[18] = Cmax in African green monkey assessed as prodrug conversion by measuring (2R,3R,4S,5R)-2-(4-aminopyrrolo[2,1-f][1,2,4]triazin-7-yl)-3,4-dihydroxy-5-(hydroxymethyl)tetrahydrofuran-2-carbonitrile at […], po measured upto 24 hrs by LC-MS/MS analysis; format: ADME, organism-based; details: chlorocebus sabaeus, in vivo
[19] = Cmax in African green monkey assessed as prodrug conversion by measuring (2R,3R,4S,5R)-2-(4-aminopyrrolo[2,1-f][1,2,4]triazin-7-yl)-3,4-dihydroxy-5-(hydroxymethyl)tetrahydrofuran-2-carbonitrile at 60 mg/kg, po measured upto 24 hrs by LC-MS/MS analysis; format: ADME, organism-based; set-up: dose 60 mg/kg, time < 24 hrs, route po; details: chlorocebus sabaeus, in vivo
[20] = Cmax in African green monkey assessed as prodrug conversion by measuring (2R,3R,4S,5R)-2-(4-aminopyrrolo[2,1-f][1,2,4]triazin-7-yl)-3,4-dihydroxy-5-(hydroxymethyl)tetrahydrofuran-2-carbonitrile at 86.5 mg/kg, po measured upto 24 hrs by LC-MS/MS analysis; format: ADME, organism-based; set-up: dose 86.5 mg/kg, time < 24 hrs, route po; details: chlorocebus sabaeus, in vivo
[21] = AUC(0 to 24 hrs) in rat assessed as prodrug conversion by measuring (2R,3R,4S,5R)-2-(4-aminopyrrolo[2,1-f][1,2,4]triazin-7-yl)-3,4-dihydroxy-5-(hydroxymethyl)tetrahydrofuran-2-carbonitrile at 6 mg/kg, po measured upto 24 hrs by LC-MS/MS analysis; format: ADME, organism-based; set-up: time < 24 hrs, dose 6 mg/kg, route po; details: in vivo
[22] = AUC(0 to 24 hrs) in African green monkey assessed as prodrug conversion by measuring (2R,3R,4S,5R)-2-(4-aminopyrrolo[2,1-f][1,2,4]triazin-7-yl)-3,4-dihydroxy-5-(hydroxymethyl)tetrahydrofuran-2-carbonitrile at 60 mg/kg, po measured upto 24 hrs by LC-MS/MS analysis; format: ADME, organism-based; set-up: time < 24 hrs, dose 60 mg/kg, route po; details: chlorocebus sabaeus, in vivo
SARS-CoV-2 [23] = experiment: Antiviral activity against SARS-CoV-2 infected in African green monkey assessed as reduction in viral load in BALF at 120 mg/kg, po qd administered for 6 days starting from 8 hrs post infection by PFA assay; format: functional, organism-based; details: Severe acute respiratory syndrome coronavirus 2, time 6.0 day
SARS-CoV-2 [24] = experiment: Antiviral activity against SARS-CoV-2 infected in African green monkey assessed as reduction in viral titer in terminal respiratory tissue at 60 to 120 mg/kg, po qd administered for 6 days starting from 8 hrs post infection by PFA assay; format: functional, organism-based; details: Severe acute respiratory syndrome coronavirus 2, dose lower 60.0 mg/kg, dose upper […], time 6.0 day
[25] = Cmax in African green monkey infected with SARS-CoV-2 assessed as prodrug conversion by measuring (2R,3R,4S,5R)-2-(4-aminopyrrolo[2,1-f][1,2,4]triazin-7-yl)-3,4-dihydroxy-5-(hydroxymethyl)tetrahydrofuran-2-carbonitrile at 60 mg/kg, po qd measured after 6 days by LC-MS/MS analysis; format: ADME, organism-based, Severe acute respiratory syndrome coronavirus 2; set-up: dose 60 mg/kg, time 6 day, route po; details: in vivo
[26] = AUC(0 to 24 hrs) in African green monkey infected with SARS-CoV-2 assessed as prodrug conversion by measuring (2R,3R,4S,5R)-2-(4-aminopyrrolo[2,1-f][1,2,4]triazin-7-yl)-3,4-dihydroxy-5-(hydroxymethyl)tetrahydrofuran-2-carbonitrile at 60 mg/kg, po qd measured after 6 days by LC-MS/MS analysis; format: ADME, organism-based, Severe acute respiratory syndrome coronavirus 2; set-up: time 6 day, dose 60 mg/kg, route po; details: in vivo

## CCC(CC)COC(=O)[C@H](C)N[P@](=O)(OC[C@H]1O[C@@](C#N)(c2ccc3c(N)ncnn23)[C@H](O)[C@@H]1O)Oc1ccccc1
[1]
  CC50 at 120 h: 1.4 µM
[2]
  CC50 at 120 h: 11.1 µM
[3]
  Cmax: 1.23 µM
[4]
  AUC: 7.9 µM·h
[5]
  log(activity): -1.38

## N#C[C@@]1(c2ccc3c(N)ncnn23)O[C@H](CO)[C@@H](O)[C@H]1O [GS-441524]
[6]
  Drug metabolism: 0.41 nmol/g

## CC(C)C(=O)OC[C@H]1O[C@@](C#N)(c2ccc3c(N)ncnn23)[C@H](O)[C@@H]1O [OBELDESIVIR]
[7]
  half-life: > 2 min
[8]
  half-life: < 3 min
[9]
  half-life: 29 min
[10]
  F: 90%
[11]
  AUC: 0.01 µM·h
[12]
  AUC: 0.02 µM·h
[13]
  Drug metabolism: 0.31 nmol/g
[14]
  F: 36%
[15]
  F: 67%
[16]
  F: 18%
PC-3
  CC50: > 100 µM
HepG2
  CC50: 71 µM
[17]
  Cmax: 7.57 µM
[18]
  Cmax: 6.81 µM
[19]
  Cmax: 22.5 µM
[20]
  Cmax: 19.6 µM
[21]
  AUC: 7.57 µM·h
[22]
  AUC: 129 µM·h
SARS-CoV-2 [23]
  Activity: Active
SARS-CoV-2 [24]
  Activity: Active
[25]
  Cmax: 21 µM
[26]
  AUC: 111 µM·h
